In US10118929B2, “Nonanoic and decanoic acid derivatives and uses thereof” (SciFluor Life Sciences, Inc., priority 2016, dated 2018):

Assays:
αvβ8 = αvβ8 (Homo sapiens (Human), UniProt P06756+P26012); assay: αVβ8-LAP-TGF β1 integrin binding assay (integrin coupled beads, flow cytometry); conditions: for IC50: ligand LAP-TGF β1 20 nM, integrin 10 nM
Experimental: (§1) αVβ6/αVβ8-LAP-TGF β1 Binding Assay
(§2) Integrins αVβ6/αVβ8 coupled beads are treated with an αVβ6/αVβ8 ligand (e.g., LAP TGF-β1 (LAP1)), and the complex is incubated with a primary antibody (Ab), which can be labeled for detection (e.g., fluorescently labeled), and optionally with a secondary antibody, which can be labeled for detection (e.g., fluorescently labeled). Reaction between integrin coupled beads and the ligand was considered as the full reaction, and reaction without the ligand or a compound of the disclosure was considered as the blank reaction. The complex is analyzed, e.g., by either plate reader or Flow Cytometer, to determine modulation of binding between αVβ6/αVβ8 and the ligand (e.g., LAP-TGF β1) by the compounds of the present application.
All αv Integrins are known to bind to proteins with a RGD motif. Two RGD ligands were used in this study: Vitronectin (VN) as a ligand for αvβ3 and αvβ5 (Wayner et al., J. Cell Biol., 113 (4), 919-929, 1991), and LAP TGF-β1 (LAP1) as a ligand for αvβ6 and αvβ8 (Rognoni et al., Nat. Med., 20(4): 350-359, 2014). CWHM12 was used as a positive control for αvβ6 and αvβ8 (Henderson et al., Nat. Med. 19(12), 10.1038/nm.3282 2013), and Cilengitide as a positive control for αvβ3 and αvβ5 (Kumar et al., J. Pharmacol. Exp. Ther., 283, 843-853, 1997).
The integrin coupled Dyna beads were allowed to interact with respective ligands. The integrin-ligand complex was detected with either Primary/Secondary Antibody conjugated with Fluorescein Isothiocyanate (FITC). For αvβ3 and αvβ5, Vitronectin was used as a ligand and a primary antibody conjugated with FITC (Anti-VN-FITC Ab) was used to detect the interaction. For αvβ6 and αvβ8, LAP-TGF β1 was used as ligand and a primary antibody against LAP1 (Anti-LAP1 Ab) and a secondary antibody conjugated with FITC were used to detect the αv β6/αvβ8-LAP-TGF β1 complex. Fluorescence was measured by Flow Cytometry analysis.
5 mg of Dyna beads were weighed in a low protein binding microfuge (Eppendorf) tube (1.5 mL volume). The beads were re-suspended in 1 mL of Sodium Phosphate Buffer and vortexed at high speed for 30 seconds. The tube was then placed in a tube roller and tilt rotated for 10 min. After tilt rotation, the tube was placed on the Magna Spin and the beads were allowed to settle. The supernatant was discarded and the beads were washed three times. The beads were then re-suspended in 100 μL of Sodium Phosphate Buffer and 20 μL of washed beads were distributed into 5 low protein binding Eppendorf tubes (1 mg of beads in each tube). The beads were used for coupling integrins. […]
(§3) The tubes were taken out and subjected to a quick spin. […] The amount of protein bound to beads was quantified by measuring the sum of protein left in the Supernatant, W1, W2, W3 and W4 through the Micro BCA method. […]

αvβ6 = αvβ6 (Homo sapiens (Human), UniProt P06756+P18564); assay: αVβ6-LAP-TGF β1 integrin binding assay (integrin coupled beads, flow cytometry); conditions: ligand LAP-TGF β1 10 nM; integrin 10 nM
Experimental: as §1, §2
All αv Integrins are known to bind to proteins with a RGD motif. […]
The integrin coupled Dyna beads were allowed to interact with respective ligands. The integrin-ligand complex was detected with either Primary/Secondary Antibody conjugated with Fluorescein Isothiocyanate (FITC). […] Fluorescence was measured by Flow Cytometry analysis. […]
as §3

αvβ8, sequence (P06756 31-992): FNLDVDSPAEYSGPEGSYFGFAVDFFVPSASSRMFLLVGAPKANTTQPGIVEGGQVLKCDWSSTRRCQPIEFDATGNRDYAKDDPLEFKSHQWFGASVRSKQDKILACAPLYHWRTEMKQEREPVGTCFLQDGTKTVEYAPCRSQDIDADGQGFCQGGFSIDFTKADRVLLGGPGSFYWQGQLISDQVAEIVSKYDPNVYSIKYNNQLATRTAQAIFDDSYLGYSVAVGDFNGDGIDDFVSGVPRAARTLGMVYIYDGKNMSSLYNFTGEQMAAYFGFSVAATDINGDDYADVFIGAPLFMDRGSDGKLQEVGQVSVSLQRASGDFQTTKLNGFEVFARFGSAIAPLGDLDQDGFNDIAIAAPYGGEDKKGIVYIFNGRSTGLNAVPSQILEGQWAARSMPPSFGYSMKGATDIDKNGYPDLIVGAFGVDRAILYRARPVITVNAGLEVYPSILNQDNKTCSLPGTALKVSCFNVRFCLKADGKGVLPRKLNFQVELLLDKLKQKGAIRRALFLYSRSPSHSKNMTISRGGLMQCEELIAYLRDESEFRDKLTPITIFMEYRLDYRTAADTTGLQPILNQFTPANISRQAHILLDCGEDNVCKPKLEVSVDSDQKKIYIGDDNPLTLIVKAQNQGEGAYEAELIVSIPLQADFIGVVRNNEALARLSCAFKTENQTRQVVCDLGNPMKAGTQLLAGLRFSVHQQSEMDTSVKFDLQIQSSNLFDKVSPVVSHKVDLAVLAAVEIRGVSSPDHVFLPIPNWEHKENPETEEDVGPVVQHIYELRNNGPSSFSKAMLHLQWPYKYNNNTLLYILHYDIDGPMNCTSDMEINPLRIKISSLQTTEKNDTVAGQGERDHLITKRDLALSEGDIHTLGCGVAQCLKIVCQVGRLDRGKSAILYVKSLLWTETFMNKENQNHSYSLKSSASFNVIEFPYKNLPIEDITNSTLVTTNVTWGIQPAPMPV
αvβ8, sequence (P26012 43-684): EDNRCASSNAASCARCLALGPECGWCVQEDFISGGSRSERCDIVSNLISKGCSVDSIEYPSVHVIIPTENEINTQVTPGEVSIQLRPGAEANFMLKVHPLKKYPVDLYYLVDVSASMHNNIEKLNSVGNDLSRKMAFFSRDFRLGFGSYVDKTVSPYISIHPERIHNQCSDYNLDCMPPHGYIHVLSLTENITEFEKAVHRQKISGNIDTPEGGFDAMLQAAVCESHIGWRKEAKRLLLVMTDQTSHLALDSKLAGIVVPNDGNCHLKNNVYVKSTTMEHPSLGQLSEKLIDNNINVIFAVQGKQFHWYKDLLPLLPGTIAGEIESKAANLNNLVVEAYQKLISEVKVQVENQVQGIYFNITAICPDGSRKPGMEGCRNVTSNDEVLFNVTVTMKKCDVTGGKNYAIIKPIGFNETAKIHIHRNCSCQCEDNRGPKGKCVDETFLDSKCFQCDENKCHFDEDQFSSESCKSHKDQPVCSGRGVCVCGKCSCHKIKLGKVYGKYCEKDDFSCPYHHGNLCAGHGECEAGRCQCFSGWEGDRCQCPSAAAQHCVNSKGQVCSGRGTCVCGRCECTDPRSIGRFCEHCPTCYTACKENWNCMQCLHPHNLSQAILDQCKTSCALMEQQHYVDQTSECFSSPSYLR
αvβ6, sequence (P06756 31-992): as the sequence (P06756 31-992) above
αvβ6, sequence (P18564 22-707): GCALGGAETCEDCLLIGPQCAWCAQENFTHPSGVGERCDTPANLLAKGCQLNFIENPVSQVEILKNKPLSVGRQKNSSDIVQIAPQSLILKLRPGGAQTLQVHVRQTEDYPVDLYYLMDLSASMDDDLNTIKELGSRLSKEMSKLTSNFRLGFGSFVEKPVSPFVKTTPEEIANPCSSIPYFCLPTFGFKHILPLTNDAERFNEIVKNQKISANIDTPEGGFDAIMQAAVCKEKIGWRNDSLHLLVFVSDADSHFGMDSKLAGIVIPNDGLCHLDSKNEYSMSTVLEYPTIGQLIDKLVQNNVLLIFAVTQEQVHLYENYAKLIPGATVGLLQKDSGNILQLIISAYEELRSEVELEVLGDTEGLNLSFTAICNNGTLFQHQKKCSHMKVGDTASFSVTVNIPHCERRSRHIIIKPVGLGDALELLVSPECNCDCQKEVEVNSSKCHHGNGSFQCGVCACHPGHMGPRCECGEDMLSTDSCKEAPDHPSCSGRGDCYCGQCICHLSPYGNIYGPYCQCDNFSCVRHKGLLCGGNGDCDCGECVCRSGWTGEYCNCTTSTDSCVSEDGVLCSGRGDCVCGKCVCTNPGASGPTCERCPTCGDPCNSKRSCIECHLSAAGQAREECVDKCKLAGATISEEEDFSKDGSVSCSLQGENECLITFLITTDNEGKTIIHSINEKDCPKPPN

| Structure (SMILES) | IC50 (αvβ8) [µM] | αvβ8/αvβ6 (αvβ8; ratio of αvβ8 IC50 to αvβ6 IC50) | IC50 (αvβ6) [µM] |
| --- | --- | --- | --- |
| O=C(O)CC(c1cccc(C(F)(F)F)c1)N1CCN(CCCCNc2nc3ccccc3[nH]2)C1=O (stereo not drawn) [Compound A1, 3-(3-(4-((1H-benzo[d]imidazol-2-yl)amino)butyl)-2-oxoimidazolidin-1-yl)-3-(3-(trifluoromethyl)phenyl)propanoic acid] | 0.0504 | 0.13 | 0.376 |
| O=C(O)CC(c1cccc(C(F)(F)F)c1)N1CCN(CCCCNC2=NCc3ccccc3C2)C1=O (stereo not drawn) [Compound A8] | 0.622 |  |  |
| O=C(O)CC(c1cccc(C(F)(F)F)c1)N1CCN(CCCCNc2ccccn2)C1=O (stereo not drawn) [Compound A10] | 0.232 |  | 0.394 |
